How the values were obtained:
[1] = target: T1, Serotonin 5-HT1A (Homo sapiens, UniProt P08908); assay: Off-target screening (Eurofins Cerep), 5-HT1A; assay type: binding
T1 construct: Eurofins Cerep SA (contract screening)

[2] = target: T2, Serotonin 5-HT1B (Rattus norvegicus, UniProt P28564); assay: Off-target screening (Eurofins Cerep), 5-HT1B; assay type: binding
T2 construct: Eurofins Cerep SA (contract screening)

[3] = system: GABA channels BZD (central); assay: Off-target screening (Eurofins Cerep), BZD (central); assay type: binding
Source text: Off-target interactions are binding of tracers to other components on the cell surface than the actual target site. These non-specific interactions are often of low affinity and easily missed, but can have significant effects. We outsourced the screening for in vitro for off-target interactions of cRGD-ZW800-1 to Eurofins Cerep SA, Le bois l’Evêque, France. They assessed the percentage of inhibition of a reference compound in 44 selected targets, including G protein-coupled receptors (GPCRs), transporters, ion channels, nuclear receptors, kinases and other non-kinase enzymes. These targets were recommended by four major pharmaceutical companies. The complete list is included in Supplementary Table 1 of the Supplementary Data. Each assay was performed twice using 10 μM cRGD-ZW800-1 and a reference compound. Inhibition higher than 50% was considered to represent a significant effect of cRGD-ZW800-1. Results showing between 20% and 50% were considered weak to moderate effects, while lower than 20% was not considered significant and mostly attributable to variability of the signal around the control level.

[4] = target: AR (steroid nuclear receptor) (Homo sapiens, UniProt P10275); assay: Off-target screening (Eurofins Cerep), AR; assay type: binding
[5] = system: HT-29 cells; assay: In vitro competition with unlabeled cRGD, HT-29; assay type: cell-based, human; conditions: 500 nM cRGD-ZW800-1 + 500 nM unlabeled cRGD (1:1), 37°C, 2 h, vs cells without unlabeled cRGD, triplicate
Method: For in vitro competition, U-87 MG (αvβ3 and αvβ5 positive, αvβ6 negative) and HT-29 (αvβ3 negative, αvβ5 and αvβ6 positive) cells were plated in a 96-well plate at a density of ∼40,000 and ∼60,000 cells per well, respectively. Subsequently, 500 nM of cRGD-ZW800-1 was simultaneously added to the cells and incubated at 37°C for 2 h. At the same time, half of the cells were also incubated with 500 nM unlabeled (“cold”) cRGD.
Both the cells in the binding and the competition experiment were then washed twice and imaged with the Odyssey NIR scanner (LI-COR Biosciences, Lincoln, Nebraska: focus offset 3 mm; 800-nm channel). Next, cells were permeabilized with a 40/60 mixture of acetone and methanol followed by a washing step and a 5 min incubation with ToPro3 (1/2000, Invitrogen), a far red fluorescent dye (642/661nm). The wells were then washed and again imaged with the Odyssey scanner (focus offset 3 mm; 700-nm channel) to quantify the number of cells in each well. The experiments were performed in triplicate.

[6] = system: orthotopic HT-29 colon tumors; assay: In vivo competition, orthotopic HT-29 model; parameters: species or system mice
Method: All animals were imaged using a Pearl® imager (LI-COR, Lincoln, NE) and an original FLARE® prototype. Animals with HT-29 tumors were imaged at 4 and 24 h post injection; animals with BxPC-3 and OSC-19 tumors at 4 h only. Animals with MCF-7 tumors were imaged at 0.5, 1, 2, 4, 6, 8, 24 and 48 h post injection. The specific and control images were normalized and regions of interest (ROIs) were selected using associated software. TBRs were calculated by dividing the tumor signal by the background signal. Based on our experience a TBR ≥ 2 is sufficient to discriminate between tumor and surrounding tissue.
The binding specificity of cRGD-ZW800-1 was explored in a competition experiment using an excess of unlabeled cRGD (200-fold excess) co-injected with a standard dose of 10 nmol cRGD-ZW800-1 (n = 4). Simultaneously, mice (n = 3) were injected with 10 nmol cRGD-ZW800-1 as positive control. All mice had orthotopic HT-29 colon tumors. Images were acquired at 4 and 24 h post-injection after which animals were sacrificed and organs were resected and scanned with Pearl®.

[7] = system: HT-29 colorectal tumors; assay: NIR fluorescence imaging, HT-29 colorectal tumors, dose-ranging; assay type: in vivo, mice
Method: To induce subcutaneous tumors, colorectal cancer cells (HT-29) were injected at 4 sites on the back (500,000 cells per spot). Subsequently, these colorectal tumor cells were transplanted on the colon of other mice, as described by Tseng et al.. Approximately 500,000 pancreatic tumor cells (BxPC-3) were injected into the pancreas, as previously described by Kim et al.. Approximately 40,000 oral tumor cells (OSC-19) were injected in the tongue, as previously described by van Driel et al.. Approximately 500,000 breast tumor cells (MCF-7) were injected in both sides of the mammary fat pad to induce breast cancer tumors.
All animals were imaged using a Pearl® imager (LI-COR, Lincoln, NE) and an original FLARE® prototype. Animals with HT-29 tumors were imaged at 4 and 24 h post injection; animals with BxPC-3 and OSC-19 tumors at 4 h only. Animals with MCF-7 tumors were imaged at 0.5, 1, 2, 4, 6, 8, 24 and 48 h post injection. […] TBRs were calculated by dividing the tumor signal by the background signal. […]
Mice were administered with 0.25 (HT-29 model only), 1.0, 10, or 30 nmol cRGD-ZW800-1 to evaluate tumor signals, biodistribution, and to calculate TBRs (n = 3 per dose group). At 4 h (BxPC-3 model) and 24 h (HT-29 model) after injection, mice were fully dissected and fluorescence intensity of their organs was measured.

[8] = target: Potassium Channel hERG (Homo sapiens, UniProt Q12809)
[9] = 10 μM cRGD-ZW800-1, format H, Ag, performed twice, read-out: % Inhibition of Control Specific Binding
[10] = 10 μM, mean of 2, read-out: % of Control Specific Binding Mean

Potassium Channel hERG, sequence (Q12809 whole entry): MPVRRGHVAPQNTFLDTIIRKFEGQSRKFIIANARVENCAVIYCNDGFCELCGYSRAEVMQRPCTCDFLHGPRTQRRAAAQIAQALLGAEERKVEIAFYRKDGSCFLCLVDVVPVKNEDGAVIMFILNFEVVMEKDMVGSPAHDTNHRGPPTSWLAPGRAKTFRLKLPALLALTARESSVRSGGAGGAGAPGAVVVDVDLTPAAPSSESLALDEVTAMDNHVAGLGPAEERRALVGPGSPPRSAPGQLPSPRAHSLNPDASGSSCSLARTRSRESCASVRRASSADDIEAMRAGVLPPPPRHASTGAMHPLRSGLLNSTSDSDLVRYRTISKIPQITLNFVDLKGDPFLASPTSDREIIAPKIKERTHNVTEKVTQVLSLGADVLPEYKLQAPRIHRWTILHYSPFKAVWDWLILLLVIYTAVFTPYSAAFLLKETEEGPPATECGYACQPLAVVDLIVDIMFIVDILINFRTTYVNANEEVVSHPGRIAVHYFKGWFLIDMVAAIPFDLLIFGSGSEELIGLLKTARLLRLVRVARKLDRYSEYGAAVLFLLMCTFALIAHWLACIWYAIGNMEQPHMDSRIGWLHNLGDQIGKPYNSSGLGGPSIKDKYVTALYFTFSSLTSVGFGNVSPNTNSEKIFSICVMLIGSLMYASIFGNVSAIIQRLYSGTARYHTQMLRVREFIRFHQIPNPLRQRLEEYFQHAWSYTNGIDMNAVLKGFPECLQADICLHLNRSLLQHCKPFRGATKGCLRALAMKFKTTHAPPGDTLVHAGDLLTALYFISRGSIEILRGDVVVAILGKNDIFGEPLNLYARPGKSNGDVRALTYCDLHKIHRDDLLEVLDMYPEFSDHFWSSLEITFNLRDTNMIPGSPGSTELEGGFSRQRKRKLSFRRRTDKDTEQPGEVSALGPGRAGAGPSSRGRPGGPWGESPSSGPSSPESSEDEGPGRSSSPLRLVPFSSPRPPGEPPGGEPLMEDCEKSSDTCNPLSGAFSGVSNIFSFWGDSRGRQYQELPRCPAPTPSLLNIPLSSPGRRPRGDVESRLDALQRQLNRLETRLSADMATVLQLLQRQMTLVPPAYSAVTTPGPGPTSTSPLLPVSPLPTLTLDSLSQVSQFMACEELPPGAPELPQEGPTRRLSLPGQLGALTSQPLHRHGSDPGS
T1 sequence (P08908 whole entry): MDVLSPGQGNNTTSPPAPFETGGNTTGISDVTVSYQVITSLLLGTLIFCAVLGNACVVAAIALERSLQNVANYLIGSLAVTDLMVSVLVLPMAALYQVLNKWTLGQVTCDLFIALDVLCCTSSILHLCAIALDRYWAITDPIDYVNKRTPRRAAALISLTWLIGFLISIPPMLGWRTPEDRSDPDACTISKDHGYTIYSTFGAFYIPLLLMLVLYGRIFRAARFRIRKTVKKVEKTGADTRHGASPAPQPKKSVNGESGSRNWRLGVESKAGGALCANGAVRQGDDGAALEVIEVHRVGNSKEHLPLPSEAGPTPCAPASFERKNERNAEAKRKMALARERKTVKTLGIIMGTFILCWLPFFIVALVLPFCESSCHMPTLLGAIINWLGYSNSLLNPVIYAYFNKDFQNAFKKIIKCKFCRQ
AR (steroid nuclear receptor), sequence (P10275 whole entry): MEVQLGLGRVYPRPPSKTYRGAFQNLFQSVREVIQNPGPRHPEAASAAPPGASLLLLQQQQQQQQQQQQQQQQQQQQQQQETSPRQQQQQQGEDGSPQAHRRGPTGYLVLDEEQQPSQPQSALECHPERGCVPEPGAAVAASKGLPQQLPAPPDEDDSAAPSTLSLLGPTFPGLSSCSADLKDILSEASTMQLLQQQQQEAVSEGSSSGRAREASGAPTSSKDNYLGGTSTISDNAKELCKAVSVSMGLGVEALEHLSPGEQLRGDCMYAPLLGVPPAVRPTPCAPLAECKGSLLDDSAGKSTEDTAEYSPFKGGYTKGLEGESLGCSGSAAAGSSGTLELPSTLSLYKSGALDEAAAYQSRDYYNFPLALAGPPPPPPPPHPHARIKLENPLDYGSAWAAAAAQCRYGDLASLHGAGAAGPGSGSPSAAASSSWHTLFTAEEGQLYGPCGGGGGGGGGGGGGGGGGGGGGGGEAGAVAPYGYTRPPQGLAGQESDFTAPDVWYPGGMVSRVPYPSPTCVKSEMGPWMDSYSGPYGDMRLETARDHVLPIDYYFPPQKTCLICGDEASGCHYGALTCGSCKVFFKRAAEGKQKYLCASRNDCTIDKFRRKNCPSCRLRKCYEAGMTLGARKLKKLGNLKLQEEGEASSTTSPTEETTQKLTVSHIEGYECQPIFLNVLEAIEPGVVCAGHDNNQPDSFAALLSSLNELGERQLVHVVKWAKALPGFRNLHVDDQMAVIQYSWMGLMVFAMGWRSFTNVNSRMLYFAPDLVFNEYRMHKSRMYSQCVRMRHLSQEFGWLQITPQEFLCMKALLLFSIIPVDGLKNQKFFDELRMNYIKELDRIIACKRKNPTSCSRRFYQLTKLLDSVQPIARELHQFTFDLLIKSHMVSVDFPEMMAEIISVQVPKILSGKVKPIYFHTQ
T2 sequence (P28564 whole entry): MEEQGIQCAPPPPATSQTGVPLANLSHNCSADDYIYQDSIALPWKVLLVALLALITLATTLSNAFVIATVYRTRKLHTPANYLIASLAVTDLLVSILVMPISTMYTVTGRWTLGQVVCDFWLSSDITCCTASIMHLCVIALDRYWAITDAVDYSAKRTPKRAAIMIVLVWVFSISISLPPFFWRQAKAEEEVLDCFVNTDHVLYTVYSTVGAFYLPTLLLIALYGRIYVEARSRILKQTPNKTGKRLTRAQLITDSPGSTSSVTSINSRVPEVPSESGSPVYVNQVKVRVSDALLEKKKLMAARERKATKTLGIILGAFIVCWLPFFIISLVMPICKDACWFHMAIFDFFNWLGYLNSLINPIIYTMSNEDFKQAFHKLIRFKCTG

**Q.** For `CC1(C)C(/C=C/C2=C(Oc3ccc(CCC(=O)NCCCC[C@@H]4NC(=O)[C@@H](Cc5ccc(O)cc5)NC(=O)[C@H](CC(=O)O)NC(=O)CNC(=O)[C@H](CCCNC(=N)N)NC4=O)cc3)C(=C/C=C3/N(CCC[N+](C)(C)C)c4ccc(S(=O)(=O)O)cc4C3(C)C)/CCC2)=[N+](CCC[N+](C)(C)C)c2ccc(S(=O)(=O)O)cc21` [cRGD-ZW800-1], which inhibition at 10 µM [1, 9] is on record?
**A.** 9%

**Q.** And the remaining activity at 10 µM [1, 10]?
**A.** 90.9%

**Q.** What about the inhibition at 10 µM ([2]; 10 μM cRGD-ZW800-1, format An, performed twice, read-out: % Inhibition of Control Specific Binding) of the same compound?
**A.** 1%

**Q.** What about the remaining activity at 10 µM [2, 10] of the same compound?
**A.** 99.1%

**Q.** What about the “% Inhibition of Control Specific Binding” value ([3]; 10 μM cRGD-ZW800-1, format Ag, performed twice) of the same compound?
**A.** 2%

**Q.** And the “% of Control Specific Binding Mean” value ([3]; 10 μM, mean of 2)?
**A.** 97.6%

**Q.** What about the inhibition at 10 µM [4, 9] of the same compound?
**A.** 9%

**Q.** What about the remaining activity at 10 µM [4, 10] of the same compound?
**A.** 91.4%

**Q.** And the “reduction of fluorescence signal by unlabeled cRGD” value [5]?
**A.** 32%

**Q.** What about the “TBR at 4 h, control” value ([6]; 10 nmol cRGD-ZW800-1 alone, n = 3, healthy colon as background, mean ± SD) of the same compound?
**A.** 3.2 ± 0.5

**Q.** And the “TBR at 4 h, with unlabeled cRGD” value ([6]; 10 nmol cRGD-ZW800-1 co-injected with 2.0 μmol unlabeled cRGD (200-fold), n = 4, mean ± SD)?
**A.** 1.8 ± 0.4

**Q.** And the “TBRs at 4 and 24 h post injection” value ([7]; HT-29, 1, 10 and 30 nmol dose groups, n = 3 per dose group)?
**A.** > 2

**Q.** And the optimal dose ([7]; mice, doses of 0.25, 1.0, 10, 30 nmol explored, Pearl and FLARE)?
**A.** 10 nmol

**Q.** What about the “% Inhibition of Control Specific Binding” value [8] of the same compound?
**A.** -6%

**Q.** What about the “% of Control Specific Binding 1st” value ([8]; 10 µM) of the same compound?
**A.** 106.4%

**Q.** What about the “% of Control Specific Binding 2nd” value ([8]; 10 µM) of the same compound?
**A.** 104.8%

Reference: PMC5400565, “Real-time near-infrared fluorescence imaging using cRGD-ZW800-1 for intraoperative visualization of multiple cancer types” (Oncotarget, 2017)
